According to PubChem BioAssay (NCI):
Several values for one entry are separate records, joined by “and”; a condition that tells them apart may be missing. Equal values may be shown once.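 Compound exposure: 48 hours, 5 concentrations, 96-well plates. At the GI50, growth is halved. TGI denotes the concentration required for complete inhibition of growth.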

Legend:
Experiment in all cases: growth of human tumour cells (NCI), 48 h
[1] = test system: SNB-19 CNS
[2] = test system: HOP-62 NSCLC
[3] = test system: HL-60(TB) leukemia
[4] = test system: 786-0 renal
[5] = test system: NCI-H522 lung
[6] = test system: MDA-MB-435
[7] = test system: NCI-H460 lung
[8] = test system: MALME-3M melanoma
[9] = test system: SK-MEL-2 melanoma
[10] = test system: KM12 colon

In the case of `CN1CC[C@]2(c3cccc(O)c3)CC(=O)/C(=C/c3ccccc3)[C@H]1C2`, the GI50 [1] is reported as 4.75 µM, the TGI [1] is reported as 17.4 µM and the GI50 [2] is reported as 3.21 µM. It also gave a TGI [2] of 10.8 µM, a TGI [3] of 5.45 µM and a GI50 [4] of 3.21 µM. For the same compound, the TGI [4] was 10.1 µM, the TGI [5] was 7.76 µM and the GI50 [6] was 2.08 µM. The TGI [6] was 8.96 µM, the TGI [7] was 6.32 µM and the TGI [8] was 9.51 µM. It also gave a GI50 [9] of 3.28 µM, a TGI [9] of 12.6 µM and a TGI [10] of 13.9 µM.

`COc1cc2nc(-c3ccc(Cl)cc3)cc(OCCCN3CCCC3)c2cc1OC` was tested, and the GI50 [1] was 3.14 µM, the TGI [1] was 14.6 µM and the GI50 [2] was 1.38 µM. The TGI [2] was 10.6 µM, the GI50 [3] was 2.72 µM and the TGI [3] was 8.33 µM. The GI50 [4] was 2.78 µM, the TGI [4] was 12.1 µM and the GI50 [5] was 2.36 µM. The TGI [5] was 8.89 µM, the GI50 [6] was 2.72 µM and the TGI [6] was 10.8 µM. It also gave a GI50 [7] of 0.823 µM, a TGI [7] of 11.2 µM and a GI50 [8] of 1.68 µM. For the same compound, the TGI [8] was 4.52 µM, the GI50 [9] was 2.16 µM and the TGI [9] was 5.22 µM. The GI50 [10] was 2.46 µM and the TGI [10] was 10.2 µM.

With `Clc1cc2c(nn1)Nc1ccccc1S2` the GI50 [1] was greater than 100 µM, the TGI [1] was greater than 100 µM and the GI50 [2] was greater than 100 µM. For the same compound, the TGI [2] was greater than 100 µM, the GI50 [3] was greater than 100 µM and the TGI [3] was greater than 100 µM. The GI50 [4] was greater than 100 µM, the TGI [4] was greater than 100 µM and the GI50 [5] was greater than 100 µM. It also gave a TGI [5] greater than 100 µM, a GI50 [6] greater than 100 µM and a TGI [6] greater than 100 µM. It also gave a GI50 [7] greater than 100 µM, a TGI [7] greater than 100 µM and a GI50 [8] greater than 100 µM. It also gave a TGI [8] greater than 100 µM, a GI50 [9] greater than 100 µM and a TGI [9] greater than 100 µM. For the same compound, the GI50 [10] was greater than 100 µM and the TGI [10] was greater than 100 µM.

`COc1ccc(CNC(C)C(=O)O)cc1` (centres undefined) gave a TGI [1] greater than 100 µM, a TGI [2] greater than 100 µM and a TGI [3] greater than 100 µM. It also gave a TGI [4] greater than 100 µM, a TGI [5] greater than 100 µM and a TGI [6] greater than 100 µM. It also gave a TGI [7] greater than 100 µM, a TGI [8] greater than 100 µM and a TGI [9] greater than 100 µM. It also gave a TGI [10] greater than 100 µM.

Work on `COC1=C(Br)C(O)C2(C=C1Br)CC(C(=O)NCCCCNC(=O)C1=NOC3(C=C(Br)C(OC)=C(Br)C3O)C1)=NO2` (centres undefined) yielded a TGI [1] greater than 100 µM, a TGI [2] of 79 µM and a TGI [3] of 47.4 µM. For the same compound, the TGI [4] was greater than 100 µM, the TGI [5] was 29.8 µM and the TGI [6] was 49.8 µM. For the same compound, the TGI [7] was greater than 100 µM, the TGI [8] was 45.5 µM and the TGI [9] was 52.8 µM. For the same compound, the TGI [10] was 27.3 µM.

In the case of `Nc1nc2c(nnn2C2OC(CO)C(O)C2O)c(=O)[nH]1` (centres undefined), the GI50 [1] is reported as 7.33 µM, the TGI [1] is reported as greater than 100 µM and the GI50 [2] is reported as 3.2 µM. It also gave a TGI [2] greater than 100 µM, a GI50 [3] of 0.546 µM and a TGI [3] greater than 100 µM. It also gave a GI50 [4] of 0.941 µM, a TGI [4] greater than 100 µM and a GI50 [5] of 0.596 µM. For the same compound, the TGI [5] was 6.74 µM, the GI50 [6] was 2.11 µM and the TGI [6] was greater than 100 µM. The GI50 [7] was 1.51 µM, the TGI [7] was greater than 40.6 µM and the GI50 [8] was 4.62 µM. For the same compound, the TGI [8] was greater than 100 µM, the GI50 [9] was 0.777 µM and the TGI [9] was 23.8 µM. The GI50 [10] was 0.97 µM and the TGI [10] was greater than 46.8 µM.

Compound `NS(=O)(=O)c1ccc(NCc2cnc3ccccc3n2)cc1` has a TGI [1] greater than 100 µM, a TGI [2] greater than 100 µM and a TGI [3] greater than 100 µM. The TGI [4] was greater than 100 µM, the TGI [5] was greater than 100 µM and the TGI [6] was greater than 100 µM. The TGI [7] was greater than 100 µM, the TGI [8] was greater than 100 µM and the TGI [9] was greater than 100 µM. The TGI [10] was greater than 100 µM.

For `Cc1[nH]c(C(=O)Nc2ccccc2OC2CCNCC2)c(Cl)c1Cl`, the GI50 [1] was 1.25 µM, the TGI [1] was 3.44 µM and the GI50 [2] was 0.812 µM. It also gave a TGI [2] of 1.63 µM, a GI50 [3] of 1.05 µM and a TGI [3] of 2.26 µM. It also gave a GI50 [4] of 0.817 µM, a TGI [4] of 1.57 µM and a GI50 [5] of 0.866 µM. It also gave a TGI [5] of 1.74 µM, a GI50 [6] of 0.883 µM and a TGI [6] of 1.62 µM. The GI50 [7] was 0.984 µM, the TGI [7] was 1.93 µM and the GI50 [8] was 0.809 µM. It also gave a TGI [8] of 1.55 µM, a GI50 [9] of 0.932 µM and a TGI [9] of 1.91 µM. The GI50 [10] was 1.28 µM and the TGI [10] was 3.16 µM.

In the case of `Cc1cc2nc3ccc(=[N+](C)C)cc-3sc2cc1N`, the GI50 [1] is reported as 0.782 µM, the TGI [1] is reported as 10.5 µM and 8.99 µM and 9.55 µM and the GI50 [2] is reported as 1.04 µM and 1.55 µM. For the same compound, the TGI [2] was 3.2 µM and 28.9 µM and 5.72 µM, the GI50 [3] was 0.214 µM and 0.181 µM and the GI50 [4] was 1.82 µM and 0.76 µM. The TGI [4] was 10.1 µM and 17.7 µM and 4.3 µM, the GI50 [5] was 0.274 µM and 1.57 µM and the TGI [5] was 1.66 µM and 8.94 µM and 10.3 µM. For the same compound, the GI50 [6] was 0.209 µM and 0.256 µM, the TGI [6] was 0.46 µM and 2.18 µM and 0.665 µM and the GI50 [7] was 0.457 µM and 1.56 µM. The TGI [7] was 7.56 µM and 24.5 µM and 11.8 µM, the GI50 [8] was 0.384 µM and 0.223 µM and the TGI [8] was 1.8 µM and 6.42 µM and 0.782 µM. For the same compound, the GI50 [9] was 1.31 µM and 2.26 µM, the TGI [9] was 5.62 µM and 17 µM and 8.27 µM and the GI50 [10] was 0.401 µM and 0.771 µM. The TGI [10] was 2.28 µM and 18.1 µM and 2.95 µM.

`O=C(N=Nc1c(O)[nH]c2ccccc12)c1oc2ccccc2c1CN1CCN(c2ccccc2)CC1` showed a GI50 [1] of 1.96 µM, a TGI [1] of 8.5 µM and a GI50 [2] of 2.7 µM. The TGI [2] was 10.9 µM, the GI50 [3] was 36.5 µM and the TGI [3] was greater than 50 µM. For the same compound, the GI50 [4] was 0.865 µM, the TGI [4] was 1.84 µM and the GI50 [5] was 3.58 µM. It also gave a TGI [5] of 19.3 µM, a GI50 [6] of 2.07 µM and a TGI [6] of 8.26 µM. For the same compound, the GI50 [7] was 1.17 µM, the TGI [7] was 2.79 µM and the GI50 [8] was 0.724 µM. For the same compound, the TGI [8] was 1.7 µM, the GI50 [9] was 5.46 µM and the TGI [9] was 15.8 µM. The GI50 [10] was 7.47 µM and the TGI [10] was greater than 50 µM.

`C[C@]12CC[C@H]3[C@@H](CCC4=CC(=O)CC[C@@]43C)[C@@H]1CC[C@@H]2C(=O)COS(=O)(=O)c1ccc(Br)cc1` gave a TGI [1] of 44.6 µM, a TGI [2] of 46.6 µM and a TGI [3] of 21.9 µM. The TGI [4] was greater than 22.4 µM, the TGI [5] was 2.97 µM and the TGI [6] was 32.8 µM. For the same compound, the TGI [7] was 22.2 µM, the TGI [8] was 12.7 µM and the TGI [9] was 22.3 µM. It also gave a TGI [10] of 44.8 µM.

With `CCCC[n+]1c(/C=C\c2c(OC)cc(OC)cc2OC)ccc2ccccc21` the GI50 [1] was 0.604 µM, the TGI [1] was 6.79 µM and the GI50 [2] was 2.58 µM. The TGI [2] was 10.5 µM, the GI50 [3] was 0.241 µM and the TGI [3] was 1.39 µM. For the same compound, the GI50 [4] was 2.84 µM, the TGI [4] was 13 µM and the GI50 [5] was 0.678 µM. The TGI [5] was 3.07 µM, the GI50 [6] was 0.393 µM and the TGI [6] was 1.87 µM. For the same compound, the GI50 [7] was 0.574 µM, the TGI [7] was 2.83 µM and the GI50 [8] was 0.362 µM. The TGI [8] was 2.07 µM, the GI50 [9] was 1.08 µM and the TGI [9] was 2.74 µM. For the same compound, the GI50 [10] was 0.345 µM and the TGI [10] was 1.59 µM.
